Data from ChEMBL document CHEMBL4739717, “Methods of treating cartilage disorders through inhibition of clk and dyrk” (2020).

What was measured:
[1] = molecular target: Dual specificity tyrosine-phosphorylation-regulated kinase 1A (Homo sapiens, UniProt Q13627); assay: Inhibition of recombinant DYRK1A (unknown origin) using Ser/Thr 18 peptide as substrate incubated for 1 hr in presence of ATP by FRET assay
[2] = Effect on Wnt signaling pathway in human SW480 cells harbouring TCF/LEF luciferase reporter gene and SP5-Luc reporter gene incubated for 36 to 48 hrs by luminescence assay; assay type: cell-based
[3] = Induction of chondrogenesis in human MSC assessed as maximum activity at 300 nM incubated for 6 days by rhodamine B and Nile red staining based imaging analysis relative to control; assay type: functional; details: BMMSC, 144 h, time 6 day
[4] = Inhibition of IL1-beta induced MMP3 expression levels in human chondrocytes assessed as MMP3 levels incubated for 2hrs followed by IL1-beta stimulation and measured after overnight incubation by LANCE assay; assay type: functional, cell-based; details: Chondrocyte
[5] = Induction of chondrogenesis in human MSC assessed as maximum activity at 100 nM incubated for 6 days by rhodamine B and Nile red staining based imaging analysis relative to control; assay type: functional; details: BMMSC, 144 h, time 6 day
[6] = Induction of chondrogenesis in human MSC assessed as incubated for 6 days by rhodamine B and Nile red staining based imaging analysis; assay type: functional; details: bmmsc

| SMILES | EC50 [1] | EC50 [2] | Emax at 0.3 µM [3] | EC50 [4] | Emax at 0.1 µM [5] | EC50 [6] |
| --- | --- | --- | --- | --- | --- | --- |
| CC(C)(C)C(=O)Nc1cncc(-c2cc3c(-c4nc5c(-c6ccc(F)s6)nccc5[nH]4)n[nH]c3cn2)c1 | 0.03 µM | 0.0353 µM | 40.9% | – | – | – |
| CN1CCN(c2cncc3[nH]c(-c4n[nH]c5ccc(-c6cccnc6)cc45)nc23)CC1 | 0.002 µM | 0.052 µM | 80.6% | – | – | – |
| O=C(Nc1cncc(-c2cc3c(-c4cc5c(N6CCCCC6)nccc5[nH]4)n[nH]c3cn2)c1)C1CCC1 | 0.023 µM | 4.07 µM | 42.4% | – | – | – |
| CC(C)(C)CC(=O)Nc1cncc(-c2cnc3[nH]nc(-c4cc5cnccc5[nH]4)c3c2)c1 | 0.002 µM | 0.605 µM | 7.07% | – | – | – |
| CN1CCN(c2nccc3[nH]c(-c4n[nH]c5ccc(-c6cncc(CN7CCCC7)c6)cc45)cc23)CC1 | 0.048 µM | 9.38 µM | 31% | – | – | – |
| CCCC(=O)Nc1cncc(-c2cnc3[nH]nc(-c4nc5c(-c6ccccc6F)cncc5[nH]4)c3c2)c1 | 0.07 µM | 0.008 µM | 82.8% | – | – | – |
| c1cncc(-c2ccnc3[nH]c(-c4n[nH]c5cnc(-c6cncnc6)cc45)cc23)c1 | 0.1 µM | > 10 µM | 49.6% | – | – | – |
| O=C(Nc1cncc(-c2cnc3[nH]nc(-c4nc5c(-c6cccc(F)c6)cncc5[nH]4)c3c2)c1)N1CCOCC1 | 0.014 µM | 0.009 µM | 96.8% | – | – | – |
| c1ncc(-c2ccc3[nH]nc(-c4cc5c(N6CCCCC6)cncc5[nH]4)c3c2)cc1CN1CCCC1 | 0.024 µM | 1.84 µM | 24.7% | – | – | – |
| CCCCC(=O)Nc1cncc(-c2cnc3[nH]nc(-c4cc5cnccc5[nH]4)c3c2)c1 | 0.003 µM | 1.47 µM | 30.8% | – | – | – |
| O=C(Nc1cncc(-c2cnc3[nH]nc(-c4cc5c(N6CCCCC6)nccc5[nH]4)c3c2)c1)C1CC1 | 0.031 µM | 3.85 µM | 42.5% | – | – | – |
| Cc1ccncc1-c1cnc2[nH]nc(-c3cc4c(-c5cccnc5)cncc4[nH]3)c2c1 | 0.017 µM | 2.25 µM | 17.4% | – | – | – |
| CC(C)CC(=O)Nc1cncc(-c2ccc3[nH]nc(-c4cc5c(-c6ccccc6F)nccc5[nH]4)c3n2)c1 | 0.023 µM | 0.605 µM | 36.3% | – | – | – |
| CC(C)C(=O)Nc1cncc(-c2cc3c(-c4cc5c(-c6ccncc6)nccc5[nH]4)n[nH]c3cn2)c1 | 0.045 µM | > 10 µM | 32.1% | – | – | – |
| CN(C)Cc1cncc(-c2ccc3[nH]nc(-c4cc5c(-c6ccncc6)cncc5[nH]4)c3c2)c1 | 0.027 µM | 1.05 µM | 17.8% | – | – | – |
| O=C1CCc2cccc(c2)-c2cncc3[nH]c(nc23)-c2n[nH]c3ccc(cc23)-c2cncc(c2)N1 | – | 0.0518 µM | – | 3 µM | 225% | 0.05 µM |
| Nc1cncc(-c2cc3c(-c4cc5c(-c6ccccc6F)cncc5[nH]4)n[nH]c3cn2)c1 | 0.04 µM | 1.63 µM | 15.5% | – | – | – |
| CC(C)Nc1cncc(-c2ccc3[nH]nc(-c4cc5c(-c6cccnc6)ccnc5[nH]4)c3c2)c1 | 0.02 µM | > 10 µM | 45.5% | – | – | – |
| CN(C)Cc1cncc(-c2ccc3[nH]nc(-c4cc5c(-c6cccc(F)c6)nccc5[nH]4)c3c2)c1 | 0.093 µM | 2.94 µM | 42% | – | – | – |
| CC(C)OCCCNC(=O)c1n[nH]c2ccc(-c3cccnc3)cc12 | – | 0.464 µM | – | 0.0108 µM | 92.5% | – |
| CN1CCN(c2ccnc3[nH]c(-c4n[nH]c5ccc(-c6cncc(NC(=O)CC(C)(C)C)c6)nc45)cc23)CC1 | 0.01 µM | 3.87 µM | 30.3% | – | – | – |
| O=C(Nc1cncc(-c2ccc3[nH]nc(-c4nc5ccncc5[nH]4)c3c2)c1)C1CC1 | 0.042 µM | 0.008 µM | 93.8% | – | – | – |
| Nc1cncc(-c2ccc3[nH]nc(-c4cc5c(-c6ccccc6F)ccnc5[nH]4)c3c2)c1 | 0.034 µM | 0.131 µM | 23.5% | – | – | – |
| O=C(Nc1cncc(-c2cnc3[nH]nc(-c4nc5c(-c6cccnc6)cncc5[nH]4)c3c2)c1)C1CC1 | 0.014 µM | 0.0233 µM | 86.3% | – | – | – |
| CC(C)Nc1cncc(-c2cnc3[nH]nc(-c4cc5c(N6CCCCC6)nccc5[nH]4)c3c2)c1 | 0.07 µM | 3.41 µM | 33.6% | – | – | – |
| FC1(F)CCN(Cc2cncc(-c3ccc4[nH]nc(-c5cc6c(-c7cccnc7)cncc6[nH]5)c4n3)c2)C1 | 0.03 µM | 3.85 µM | 23.3% | – | – | – |

| SMILES | EC50 [1] | EC50 [2] | Emax at 0.3 µM [3] | EC50 [4] | Emax at 0.1 µM [5] | EC50 [6] |
| --- | --- | --- | --- | --- | --- | --- |
| O=C1COc2cccc(c2)-c2cncc3[nH]c(nc23)-c2n[nH]c3ccc(cc23)-c2cncc(c2)N1 | – | 0.0868 µM | – | 0.0374 µM | 185% | 0.1 µM |
| O=C(Nc1cncc(-c2cnc3[nH]nc(-c4cc5c(-c6cccnc6)cccc5[nH]4)c3c2)c1)C1CCC1 | 0.025 µM | 0.202 µM | 41.3% | – | – | – |
| CN(C)CCOc1cncc(-c2ccc3[nH]nc(-c4nc5c(-c6cccs6)cccc5[nH]4)c3n2)c1 | 0.041 µM | 3.11 µM | – | – | 142% | 0.01 µM |
| Nc1cncc(-c2cc3c(-c4cc5c(N6CCCCC6)cncc5[nH]4)n[nH]c3cn2)c1 | 0.006 µM | 2.96 µM | – | – | 93.5% | 0.03 µM |
| CCC(=O)Nc1cncc(-c2cnc3[nH]nc(-c4cc5cnccc5[nH]4)c3c2)c1 | 0.002 µM | 0.96 µM | 16.9% | – | – | – |
| CN(C)c1cncc(-c2ccc3[nH]nc(-c4nc5c(-c6cccc(F)c6)cncc5[nH]4)c3n2)c1 | 0.025 µM | 0.638 µM | – | – | 154% | 0.01 µM |
| CCNCc1cncc(-c2cnc3[nH]nc(-c4cc5c(-c6cc(F)cc(CNS(C)(=O)=O)c6)cncc5[nH]4)c3c2)c1 | 0.006 µM | > 10 µM | – | 3 µM | 42.8% | – |
| c1cncc(-c2ccc3[nH]nc(-c4cc5c(-c6cccnc6)cncc5[nH]4)c3c2)c1 | 0.001 µM | 0.31 µM | – | 0.0011 µM | 58.2% | 0.1 µM |
| CC(C)C(=O)Nc1cncc(-c2cc3c(-c4cc5cnccc5[nH]4)n[nH]c3cn2)c1 | 0.001 µM | 0.399 µM | – | – | 61.2% | 0.03 µM |
| CN(C)Cc1cncc(-c2cnc3[nH]nc(-c4nc5c(-c6cc(F)cc(N7CCOCC7)c6)cncc5[nH]4)c3c2)c1 | 0.011 µM | 0.021 µM | – | – | 114% | 0.03 µM |
| Cc1ncc(-c2ccc3[nH]nc(-c4nc5c(-c6cccc(F)c6)cccc5[nH]4)c3n2)n1C | 0.08 µM | 0.15 µM | – | – | 112% | 0.01 µM |
| CC(C)CC(=O)Nc1cncc(-c2ccc3[nH]nc(-c4nc5c(-c6ccc(F)cc6)cncc5[nH]4)c3c2)c1 | 0.06 µM | 0.057 µM | – | – | 125% | 0.1 µM |
| c1cc2[nH]c(-c3n[nH]c4ccc(-c5cncc(CN6CCCCC6)c5)cc34)cc2cn1 | 0.004 µM | 0.685 µM | – | – | 122% | 0.1 µM |
| Cc1ccc(-c2cncc3[nH]c(-c4n[nH]c5cnc(-c6cncc(NC(=O)C7CCC7)c6)cc45)nc23)s1 | 0.012 µM | 0.0101 µM | – | – | 231% | 0.1 µM |
| O=C(Nc1cncc(-c2cc3c(-c4cc5c(-c6cccnc6)cccc5[nH]4)n[nH]c3cn2)c1)C1CC1 | 0.034 µM | 0.33 µM | – | – | 308% | 0.1 µM |
| O=C(Nc1cncc(-c2cnc3[nH]nc(-c4cc5c(-c6cccs6)nccc5[nH]4)c3c2)c1)C1CCC1 | 0.046 µM | 0.473 µM | – | – | 82.2% | 0.1 µM |
| CCCCC(=O)Nc1cncc(-c2ccc3[nH]nc(-c4cc5c(N6CCCCC6)cccc5[nH]4)c3n2)c1 | 0.04 µM | 0.572 µM | – | – | 68.6% | 0.1 µM |
| Cc1ccc(-c2cncc3[nH]c(-c4n[nH]c5ccc(-c6cncc(N)c6)nc45)nc23)s1 | 0.002 µM | 0.0407 µM | – | – | 79.4% | 0.03 µM |
| FC1(F)CCN(Cc2cncc(-c3ccc4[nH]nc(-c5cc6c(N7CCCCC7)cccc6[nH]5)c4c3)c2)C1 | 0.022 µM | 0.75 µM | – | – | 160% | 0.03 µM |
| CC(C)(C)CC(=O)Nc1cncc(-c2cc3c(-c4cc5cnccc5[nH]4)n[nH]c3cn2)c1 | 0.003 µM | 1.89 µM | – | – | 58.8% | 0.01 µM |
| Cc1cn(-c2ccnc3[nH]c(-c4n[nH]c5ccc(-c6cncc(NC(=O)C7CCC7)c6)nc45)nc23)cn1 | 0.02 µM | > 10 µM | – | – | 69.1% | 0.3 µM |
| CCC(=O)Nc1cncc(-c2cnc3[nH]nc(-c4cc5c(-c6cccc(F)c6)cncc5[nH]4)c3c2)c1 | 0.013 µM | 0.246 µM | – | – | 113% | 0.01 µM |
| CN1CCN(c2nccc3[nH]c(-c4n[nH]c5cnc(-c6cncc(NC(=O)C7CCCCC7)c6)cc45)cc23)CC1 | 0.003 µM | 3.42 µM | – | – | 60.8% | 0.01 µM |
| CN1CCN(c2cccc3[nH]c(-c4n[nH]c5ncc(-c6cncc(CN7CCCCC7)c6)cc45)cc23)CC1 | 0.034 µM | 4.75 µM | – | – | 23.6% | 0.3 µM |
| Cc1ccncc1-c1cc2c(-c3nc4c(-c5cc(F)cc(CNS(C)(=O)=O)c5)cccc4[nH]3)n[nH]c2cn1 | 0.058 µM | 0.0304 µM | – | – | 81.8% | 0.03 µM |
